Laboratory results as given in patent US10266510B2, “Antimicrobial and cytotoxic compounds and methods for treating cancer, a bacterial infection, and/or a fungal infection” (King Abdulaziz University, priority 2017, dated 2019).

Legend:
Assay in all cases: Well diffusion agar method, inhibition zone
Format in all cases: cell-based
Proteus sp. = test system: Proteus sp.
Text: (§1) The ability to inhibit the growth of Gram-positive and Gram-negative bacteria, yeasts and filamentous fungi was observed using an overlay method (S. R. Connell, D. M. Tracz, K. H. Nierhaus, D. E. Taylor, Antimicrob. Agents Chemother. 47, 3675 (2003), incorporated herein by reference in its entirety).
(§2) The common pathogenic and food spoilage microorganisms were selected for their relevance in bakery products and other food: the gram-positive bacteria: Bacillus subtilits NRRL-B-4219, Staphylococcus aureus ATCC 6538, Enterococcus faecalis ATCC 19433; the gram negative bacteria: Escherichia coli ATCC 25922, Pseudomonas aeruginosa ATCC 9027, Proteus sp.; yeasts, such as Candida albicans ATCC 10231; and fungi: Aspergillus niger NRRL 2766 (equivalent to ATCC 16888), and Aspergillus flavus ATCC 16883. The bacteria were slanted on nutrient agar (Merck, Darmstadt, Germany), yeast was slanted and mentioned on Sabaroud's agar medium (Lab M., Bury, Lancashire, UK) and the fungi was slanted and mentioned on the potato Dextrose Agar medium (Lab M Limited, Bury, Lancashire, UK). Mueller-Hinton agar (Lab M., Bury, Lancashire, UK) following the manufacturer's instructions was used for the assay.
(§3) All compounds were dissolved in dimethyl sulfoxide (RFCL Limited, New Delhi, India) at 50 μg/mL concentration as shown in Table 4 in comparison with different standard antibiotics. Antibiotic discs of Streptomycin (S) (10 μg), Oxytetracycline (T) (30 μg), and Tetracyciline (TE) (30 μg) were used as positive controls for bacteria. Neomycin (N) (30 μg), was used for fungi.
(§4) The antibacterial screening was performed with the well diffusion agar method (S. T. Williams, M. Goodfellow, E. M. H. Wellington, J. C. Vickers, G. Alderson, P. H. A. Sneath, S. M. J. Sackins, A. M. Mortimer, J. Gen. Microbiol. 129, 1815(1983); and B. Bonev, J. Hooper, J. Parisot, J. Antimicrob. Chemother., 61, 1295(2008), each incorporated herein by reference in their entirety). The organisms were streaked in radial patterns on the agar plates. Plates were incubated under aerobic conditions at 37° C. and 28° C. for 24 h and 48 h for bacteria and fungi, respectively. All prepared solutions were treated under the same conditions under the same incubated plates. All tests were performed in triplicate. Plates were examined for evidence of antimicrobial activities, represented by a zone of inhibition of the microorganism's growth around the holes, and diameters of clear zones were expressed in millimeters (R. Cruickshank, J. P. Duguid, B. P. Marmion, R. H. A. Swain, The practice of medicinal microbiology. In Medical Microbiology, 12th ed.; Churchill Livingstone: Edinburgh, UK, Volume 11, pp. 196-202 (1975), incorporated herein by reference in its entirety).

[1] = test system: Escherichia coli ATCC 25922
Text: as §1, §2, §3, §4

[2] = test system: Aspergillus niger NRRL 2766
Text: as §1, §2, §3, §4

[3] = test system: Enterococcus faecalis ATCC 19433
Text: as §1, §2, §3, §4

[4] = test system: Pseudomonas aeruginosa ATCC 9027
Text: as §1, §2, §3, §4

[5] = test system: Staphylococcus aureus ATCC 6538
Text: as §1, §2, §3, §4

[6] = test system: Bacillus subtilits NRRL-B-4219
Text: as §1, §2, §3, §4

[7] = test system: Candida albicans ATCC 10231
Text: as §1, §2, §3, §4

[8] = test system: Aspergillus flavus ATCC 16883
Text: as §1, §2, §3, §4

Row | Compound | Inhibition zone, Proteus sp. (Proteus sp.; standard antibiotic disc 30 μg) [mm] | Inhibition zone, E. coli ([1]; standard antibiotic disc 30 μg) [mm] | Inhibition zone, A. niger ([2]; standard antibiotic disc 30 μg) [mm] | Inhibition zone, Ent. faecalis ([3]; standard antibiotic disc 30 μg) [mm] | Inhibition zone, P. aeruginosa ([4]; standard antibiotic disc 30 μg) [mm] | Inhibition zone, S. aureus ([5]; standard antibiotic disc 30 μg) [mm] | Inhibition zone, B. subtilits ([6]; standard antibiotic disc 30 μg) [mm] | Inhibition zone, C. albicans ([7]; standard antibiotic disc 30 μg) [mm] | Inhibition zone, A. flavus ([8]; standard antibiotic disc 30 μg) [mm] | Inhibition zone, Proteus sp. (Proteus sp.; standard antibiotic disc 10 μg) [mm] | Inhibition zone, E. coli ([1]; standard antibiotic disc 10 μg) [mm] | Inhibition zone, A. niger ([2]; standard antibiotic disc 10 μg) [mm] | Inhibition zone, Ent. faecalis ([3]; standard antibiotic disc 10 μg) [mm] | Inhibition zone, P. aeruginosa ([4]; standard antibiotic disc 10 μg) [mm] | Inhibition zone, S. aureus ([5]; standard antibiotic disc 10 μg) [mm] | Inhibition zone, B. subtilits ([6]; standard antibiotic disc 10 μg) [mm] | Inhibition zone, C. albicans ([7]; standard antibiotic disc 10 μg) [mm] | Inhibition zone, A. flavus ([8]; standard antibiotic disc 10 μg) [mm]
1 | CN(C)[C@@H]1C(O)=C(C(N)=O)C(=O)[C@@]2(O)C(O)=C3C(=O)c4c(O)cccc4[C@@](C)(O)[C@H]3C[C@@H]12 [TE*, Tetracyciline] | 0 | 0 | 16 | 0 | 0 | 0 | 10 | 0 | 14 | – | – | – | – | – | – | – | – | –
2 | CN(C)[C@@H]1C(O)=C(C(N)=O)C(=O)[C@@]2(O)C(O)=C3C(=O)c4c(O)cccc4[C@@](C)(O)[C@H]3[C@H](O)[C@@H]12 [T*, Oxytetracycline] | 0 | 0 | 0 | 0 | 0 | 0 | 30 | 0 | 0 | – | – | – | – | – | – | – | – | –
3 | [H]/N=C(/N)N[C@H]1[C@H](O)[C@@H](O)[C@H](O[C@@H]2O[C@@H](C)[C@](O)(C=O)[C@H]2O[C@@H]2O[C@@H](CO)[C@H](O)[C@@H](O)[C@@H]2NC)[C@@H](N/C(N)=N\[H])[C@@H]1O (relative stereo) [S*, Streptomycin] | – | – | – | – | – | – | – | – | – | 0 | 0 | 0 | 0 | 0 | 0 | 14 | 12 | 0
4 | NC[C@@H]1O[C@H](O[C@H]2[C@@H](O)[C@H](O[C@@H]3[C@@H](O)[C@H](N)C[C@H](N)[C@H]3O[C@H]3O[C@H](CN)[C@@H](O)[C@H](O)[C@H]3N)O[C@@H]2CO)[C@H](N)[C@@H](O)[C@@H]1O [N*, Neomycin] | 0 | 0 | 16 | 0 | 0 | 0 | 0 | 0 | 14 | – | – | – | – | – | – | – | – | –
